Here are results for one compound from US20250269062A1, “METHODS FOR IN VIVO EDITING OF A LIVER GENE” (INTELLIA THERAPEUTICS, INC., priority 2021, published 2025).

Molecules are shown by their SMILES. “Also recorded” adds a separate entry of the source.

A short description of series [1]: Clinical plasma pharmacokinetics of NTLA-2001 components (LC-MS/MS for Lipid A and DMG-PEG2k, qRT-PCR for guide RNA and mRNA). In kind it is in vivo, human. The following applies: for plasma concentration-time profile: following single IV infusion of NTLA-2001, interim. The source says: Plasma pharmacokinetic methods were developed and validated to quantify 4 components of NTLA-2001: ionizable Lipid A (also referred to as LP01), DMG-PEG2k lipid, guide RNA, and mRNA. Lipid A and DMG-PEG2k are quantified by liquid chromatography with tandem mass spectrometry (LC-MS/MS) method. Assay signal [ratio of area under the curve of reference standard over internal standard (IS, using isotopic labelled reference standard)] vs. Concentration response standard curve is used. QCs and unknown sample signal are interpolated from standard curve to determine plasma concentrations. Both guide RNA and mRNA are quantified by qRT-PCR. Signal Cycle Threshold (Ct) vs. Concentration standard curve is used. QCs and unknown samples were interpolated from standard curve to quantify plasma concentrations. Urine PK methods were developed and validated for Lipid A and DMG-PEG2k to characterize excretion.
Preliminary plasma PK data are available for the four components of NTLA-2001 (ionizable Lipid A, DMG-PEG2k lipid, guide RNA, and mRNA). […] FIG. 24. Data for other components not shown.

Series [2] can be described thus: Population pharmacokinetics (POPPK) model and simulations of LP01. The arrangement: species or system human. Particulars: interim POPPK model, 15 ATTRv-PN subjects. As to the method: An interim POPPK model was developed for NTLA-2001 analyte LP01 based on a published model using NONMEM software (Version 7.5.0, ICON Clinical Research LLC, Blue Vell, PA). There were 290 observations in 15 ATTRv-PN subjects for this analysis. Parameter values for this model and goodness of fit plots were determined (not shown). The relationship between body weight and the estimated elimination clearance was determined, together with the modeled linear relationship.
FIG. 26 provides the distribution of simulated AUC by weight quartile following administration of 1 mg/kg (left panel) and 80 mg (right panel) NTLA-2001. […] Likewise, following 80 mg NTLA-2001, there is again overlap of simulated LP01 AUC across weight quartiles. […] The ratio of simulated mean exposures in the 4th ([90.3-146] kg) to the 1st weight quartile ([48-71.7] kg) is 1.25 for 1 mg/kg NTLA-2001 and 0.81 for 80 mg NTLA-2001. Simulations identified NTLA-2001 80 mg as the fixed dose equivalent to 1.0 mg/kg.

Turning to `CCCCC/C=C\C/C=C\CCCCCCCC(=O)OCC(COC(=O)CCC(OCCCCCCCC)OCCCCCCCC)COC(=O)OCCCN(CC)CC` (stereo not shown) [LP01, (9Z,12Z)-3-((4,4-bis(octyloxy)butanoyl)oxy)-2-((((3-(diethylamino)propoxy)carbonyl)oxy)methyl)propyl octadeca-9,12-dienoate], the plasma concentration-time profile entry in series [1] was “rapid decline from peak levels, followed by a secondary peak, and then a log-linear phase; also recorded: declines rapidly from peak and then exhibits a secondary peak and log-linear phase”; in series [1] (listed as NTLA-2001 ionizable lipid) it was “rapid decline from peak levels followed by a secondary peak and then a log-linear phase”. Further, in series [1] (human, plasma, single IV infusion of NTLA-2001 at 0.1 to 1.0 mg/kg, range across doses, preliminary, read-out: mean (% CV) terminal t1/2), the half-life was 19.7 to 24.8 h. Further, the “relationship between body weight and estimated elimination clearance” value in series [2] is reported as “less than proportional”.
